Source: ChEMBL document CHEMBL3351664, “Acylphloroglucinol derivatives from Hypericum andinum: antidepressant-like activity of andinin A” (J Nat Prod, 2014)

Columns and labels:
Mus musculus [1] = test: Antidepressant-like activity in po dosed mouse assessed as reduction in the immobility time by forced-swimming test; assay type: functional, organism-based
Mus musculus [2] = test: Toxicity in po dosed CF1 mouse assessed as effect on locomotor activity at 30 mg/kg, po measured after 60 mins by open-field test; assay type: organism-based; design: dose 30 mg/kg, route oral; conditions: in vivo, 1 h

`CC(C)=CCOc1cc(O)c(C(=O)C(C)C)c(O)c1CC1=C(O)C(C)(C)C(O)=C(C(=O)C(C)C)C1=O` was tested, and the Activity (Mus musculus [1]) was “Dose-dependent effect” and the Activity (Mus musculus [2]) was “Non-toxic”.
